From paper PMC10814725, “In Vitro Anti-Inflammatory Study of Limonoids Isolated from Chisocheton Plants” (Current Issues in Molecular Biology, 2024)

What was measured:
[1] = test system: TLR4-dependent NF-kB activation in HEK-Blue hTLR4 cells; test: SEAP reporter gene assay, antagonist effect on LPS-stimulated TLR4-dependent NF-κB activation; type: cell-based, human; conditions: 20 µM, LPS 10 ng/mL, 18 h, vs. LPS stimulated-only group
Method: The SEAP Reporter Gene Assay was conducted as previously described. HEK-Blue^TM hTLR4 cells (2 × 10^4 cells/well) were seeded in 96-well plates and were serum-starved for 24 h at 37 °C in a 5% carbon dioxide atmosphere. After incubation, the culture medium was aspirated, and the cells were washed with saline. High-glucose D-MEM supplemented with 0.1% FBS and 1% penicillin-streptomycin was added and treated with or without the 17 limonoids at a concentration of 20 µM for 1 h, followed by LPS addition at a concentration of 10 ng/mL for the LPS-stimulated group. After incubation at 37 °C for 18 h, the supernatants were collected and PNPP in PBS solution (0.8 mM, 100 μL) was added, followed by 4 h of shading at 25 °C. The optical density (OD) of the samples was measured at 405 nm using a microplate reader (BioTek Cytation 5 Cell Imaging Multimode Reader, Agilent Technologies, Santa Clara, CA, USA).

TNF-α = test: ELISA of TNF-α production in LPS-stimulated THP-1 cells; type: cell-based, human; conditions: for Effect on TNF-α level: 10 µM, compared to LPS (+)-stimulated group, THP-1 cells; for IC50: Homo sapiens, THP-1, 18 h, LPS-stimulated (10 ng/mL) THP-1 cells, 1, 5, 10, 20 µM, 18 h, read-out: TNF-α IC50; for TNF-α SI (selectivity index, CC50/IC50): THP-1 CC50 / TNF-α IC50
IL-6 = test: ELISA of IL-6 production in LPS-stimulated THP-1 cells; type: cell-based, human; conditions: for Effect on IL-6 level: 10 µM, compared to LPS (+)-stimulated group, THP-1 cells; for IC50: Homo sapiens, THP-1, 18 h, LPS-stimulated (10 ng/mL) THP-1 cells, 1, 5, 10, 20 µM, 18 h
Method: (§1) The logarithmic growth phase of THP-1 cells was achieved by seeding in 96-well plates at a density of 5 × 10^4 cells/well and differentiated for 24 h in the presence of PMA (0.5 μM solution in medium). After 24 h of incubation, the culture medium was removed from the 96-well plate and the cells were washed with PBS. […] The cells were pretreated with 17 limonoids at the corresponding concentration for 1 h, followed by the addition of LPS (10 ng/mL) and then incubation at 37 °C for 18 h. Finally, 50 μL of each culture supernatant solution was taken to determine the concentrations of IL-6, MCP-1, and IL-1β using the corresponding commercially available human ELISA kits following the manufacturer’s instructions. The analyte concentration in the supernatant was measured in pg/mL, and the inhibition level was expressed as a fold change compared to the LPS (−) control group. To determine the IC50 value, the dose-response data were normalized to the LPS-stimulated-only group, and the percentage of inhibition was calculated using the following formula: % Inhibition=(Absorbance of LPS+ control−Absorbance of compound treatment with LPS)/(Absorbance of LPS+ control−Absorbance of LPS− control)×100
(§2) Furthermore, the % inhibition data were interpolated into linear equations to determine the IC50 values.

IL-1β = test: ELISA of IL-1β production in LPS-stimulated THP-1 cells; type: cell-based, human; conditions: 10 µM, compared to LPS (+)-stimulated group
Method: The logarithmic growth phase of THP-1 cells was achieved by seeding in 96-well plates at a density of 5 × 10^4 cells/well and differentiated for 24 h in the presence of PMA (0.5 μM solution in medium). After 24 h of incubation, the culture medium was removed from the 96-well plate and the cells were washed with PBS. Fresh RPMI-1640 medium supplemented with 0.1% FBS and 1% Penicillin–Streptomycin was added to each well and incubated at 37 °C overnight. The cells were pretreated with 17 limonoids at the corresponding concentration for 1 h, followed by the addition of LPS (10 ng/mL) and then incubation at 37 °C for 18 h. Finally, 50 μL of each culture supernatant solution was taken to determine the concentrations of IL-6, MCP-1, and IL-1β using the corresponding commercially available human ELISA kits following the manufacturer’s instructions. The analyte concentration in the supernatant was measured in pg/mL, and the inhibition level was expressed as a fold change compared to the LPS (−) control group. To determine the IC50 value, the dose-response data were normalized to the LPS-stimulated-only group, and the percentage of inhibition was calculated using the following formula: % Inhibition=(Absorbance of LPS+ control−Absorbance of compound treatment with LPS)/(Absorbance of LPS+ control−Absorbance of LPS− control)×100
as §2

MCP-1 = test: ELISA of MCP-1 production in LPS-stimulated THP-1 cells; type: cell-based, human; conditions: for Effect on MCP-1 level: 10 µM, compared to LPS (+)-stimulated group, THP-1 cells; for IC50: Homo sapiens, LPS-stimulated (10 ng/mL) THP-1 cells, 1, 5, 10, 20 µM, 18 h; for MCP-1 SI (selectivity index, CC50/IC50): THP-1 CC50 / MCP-1 IC50
Method: as §1, §2

[2] = Cell viability by CCK-8, HEK-Blue hTLR4 cells; type: cell-based; conditions: human
Outline: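 CCK-8 read-out. HEK-Blue hTLR4 cells (2 × 10^4/well) serum-starved 24 h, then in high-glucose D-MEM with 0.1% FBS pretreated ±20 µM limonoids for 1 h before 10 ng/mL LPS; CCK-8 (10% v/v) added after 18 h and incubated 1 h at 37 °C. RAW264.7 viability measured likewise with CCK-8.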

phosphorylated-p38 MAPK = test: Western blotting of phosphorylated-p38 MAPK in LPS-stimulated THP-1 cells; type: cell-based, human; conditions: 10 µM, LPS 10 ng/mL, 18 h, compared to LPS (+) group
Method: THP-1 cells were seeded at a density of 1 × 10^6 cells/well in 24-well plates. The cells were then pretreated with a concentration of 10 µM of compounds 3, 5, 9, or 15 for 1 h. Subsequently, LPS (10 ng/mL) was added to the cells, which were incubated for 18 h. The protein concentrations were determined using a bicinchoninic acid (BCA) assay kit.
For Western blot analysis, proteins were separated by SDS-PAGE and transferred onto a polyvinylidene fluoride (PVDF) membrane. The membranes were blocked with 2.5% BSA in Tris-buffered saline-Tween (TBST) for 1 h at room temperature. After three washes with TBST, the membranes were incubated with a diluted primary antibody solution (anti-phosphorylated-p38 MAPK or anti-p38 MAPK) at a 1:1000 dilution for 1 h at room temperature. After three washes with TBS-T, the membranes were incubated with a secondary antibody conjugated to horseradish peroxidase (HRP; 1:4000 dilution) for 30 min at room temperature and subsequently detected by chemiluminescence. Finally, the bands were visualized and quantified using an ImageQuant 800 GxP system (Cytiva, MA, USA). The results were expressed as ratios relative to the reference protein β-actin.

[3] = Viability Cell (%) HEK-Blue hTLR4 LPS-Induced (10 ng/mL)
[4] = Viability Cell (%) HEK-Blue hTLR4 Without LPS

| Structure (SMILES) | Inhibition of SEAP release (NF-κB activity inhibition) [1] | Effect on TNF-α level (TNF-α) | IC50 (TNF-α) [nM] | TNF-α SI (selectivity index, CC50/IC50) (TNF-α) | Effect on IL-6 level (IL-6) | IC50 (IL-6) [nM] | IL-6 SI (selectivity index, CC50/IC50) (IL-6; THP-1 CC50 / IL-6 IC50) | Effect on IL-1β level (IL-1β) | Effect on MCP-1 level (MCP-1) | IC50 (MCP-1) [nM] | MCP-1 SI (selectivity index, CC50/IC50) (MCP-1) | viability at 18 h, 20 µM [2, 3] [%] | viability at 18 h, 20 µM [2, 4] [%] | Effect on p-p38 MAPK levels (phosphorylated-p38 MAPK) |
| --- | --- | --- | --- | --- | --- | --- | --- | --- | --- | --- | --- | --- | --- | --- |
| CC(=O)O[C@H]1[C@@H](O)[C@@]2(C)C3=CC[C@@H](c4ccoc4)[C@]3(C)CC[C@@H]2[C@@]2(C)C=CC(=O)C(C)(C)[C@H]12 [Compound 3, 6α-O-acetyl-7-deacetylnimocinol] | significantly inhibited SEAP release | significantly reduced | 9180 | 2.21 | significantly reduced | 3060 | 6.63 | significantly reduced | significantly reduced | 2110 | 9.61 | 6.79 ± 6.22 | 20.7 ± 3.08 | significantly suppressed |
| CC(=O)O[C@H]1[C@@H](OC(C)=O)[C@@]2(C)C3=CC[C@@H](c4ccoc4)[C@]3(C)CC[C@@H]2[C@@]2(C)C=CC(=O)C(C)(C)[C@H]12 [Compound 5, dysobinin] | significantly inhibited SEAP release | significantly reduced | 5760 | 2.53 | significantly reduced | 1640 ± 970 |  | significantly reduced | significantly reduced | 870 | 16.76 | 23.6 ± 2.61 | 43.3 ± 6.02 | significantly suppressed |
